Source: ChEMBL document CHEMBL1201862, “PubChem BioAssay data set” (2004)
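Protocol summary: plate cells (96-well), add compound at 5 concentrations, incubate 48 h, interpolate endpoints linearly. GI50 is the concentration that inhibits growth by half.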 Calls of active or inactive are those of the source. Rule as the data show it: active = GI50 up to about 1.1 µM and inactive = higher.

What was measured:
Assay in all cases: inhibition of tumour cell growth, NCI panel, 48 h
[1] = tested on: 786-0
[2] = tested on: A498
[3] = tested on: A549
[4] = tested on: ACHN
[5] = tested on: CAKI-1
[6] = tested on: CCRF-CEM
[7] = tested on: COLO 205
[8] = tested on: DLD-1
[9] = tested on: DMS-114
[10] = tested on: DMS-273
[11] = tested on: HCC 2998
[12] = tested on: HCT-116
[13] = tested on: HCT-15
[14] = tested on: HL-60
[15] = tested on: HOP-18
[16] = tested on: HOP-62
[17] = tested on: HOP-92
[18] = tested on: HT-29
[19] = tested on: IGROV-1
[20] = tested on: K562
[21] = tested on: KM-20L2
[22] = tested on: KM12
[23] = tested on: LOX IMVI
[24] = tested on: LXFL 529
[25] = tested on: M14
[26] = tested on: M19-MEL
[27] = tested on: MOLT-4
[28] = tested on: Malme-3M
[29] = tested on: NCI-H23
[30] = tested on: NCI-H460
[31] = tested on: NCI-H522
[32] = tested on: OVCAR-3
[33] = tested on: OVCAR-4
[34] = tested on: OVCAR-5
[35] = tested on: OVCAR-8
[36] = tested on: RPMI-8226
[37] = tested on: RXF 393
[38] = tested on: SF-268
[39] = tested on: SF-295
[40] = tested on: SF-539
[41] = tested on: SK-MEL-28
[42] = tested on: SK-MEL-2
[43] = tested on: SK-MEL-5
[44] = tested on: SK-OV-3
[45] = tested on: SN12C
[46] = tested on: SNB-19
[47] = tested on: SNB-75
[48] = tested on: SR
[49] = tested on: SW-620
[50] = tested on: TK-10
[51] = tested on: U-251
[52] = tested on: UACC-62
[53] = tested on: UO-31
[54] = tested on: EKVX
[55] = tested on: SNB-78
[56] = tested on: UACC-257
[57] = tested on: XF498
[58] = tested on: NCI-H226

## CN1OC(CO)CC12C1CC3CC(C1)CC2C3 (stereo unspecified)
[1]
  GI50: > 100 µM (inactive)
[2]
  GI50: > 100 µM (inactive)
[3]
  GI50: > 100 µM (inactive)
[4]
  GI50: > 100 µM (inactive)
[5]
  GI50: > 100 µM (inactive)
[6]
  GI50: > 100 µM (inactive)
[7]
  GI50: > 100 µM (inactive)
[8]
  GI50: > 100 µM (inactive)
[9]
  GI50: > 100 µM (inactive)
[10]
  GI50: > 100 µM (inactive)
[11]
  GI50: > 100 µM (inactive)
[12]
  GI50: > 100 µM (inactive)
[13]
  GI50: > 100 µM
[14]
  GI50: > 100 µM (inactive)
[15]
  GI50: > 100 µM (inactive)
[16]
  GI50: > 100 µM (inactive)
[17]
  GI50: > 100 µM (inactive)
[18]
  GI50: > 100 µM (inactive)
[19]
  GI50: > 100 µM (inactive)
[20]
  GI50: > 100 µM (inactive)
[21]
  GI50: > 100 µM (inactive)
[22]
  GI50: > 100 µM (inactive)
[23]
  GI50: > 100 µM (inactive)
[24]
  GI50: > 100 µM (inactive)
[25]
  GI50: > 100 µM (inactive)
[26]
  GI50: > 100 µM (inactive)
[27]
  GI50: > 100 µM (inactive)
[28]
  GI50: > 100 µM (inactive)
[29]
  GI50: > 100 µM (inactive)
[30]
  GI50: > 100 µM (inactive)
[31]
  GI50: > 100 µM (inactive)
[32]
  GI50: > 100 µM (inactive)
[33]
  GI50: > 100 µM (inactive)
[34]
  GI50: > 100 µM (inactive)
[35]
  GI50: > 100 µM (inactive)
[36]
  GI50: > 100 µM (inactive)
[37]
  GI50: > 100 µM (inactive)
[38]
  GI50: > 100 µM (inactive)
[39]
  GI50: > 100 µM (inactive)
[40]
  GI50: > 100 µM (inactive)
[41]
  GI50: > 100 µM (inactive)
[42]
  GI50: > 100 µM (inactive)
[43]
  GI50: > 100 µM (inactive)
[44]
  GI50: > 100 µM (inactive)
[45]
  GI50: > 100 µM (inactive)
[46]
  GI50: > 100 µM (inactive)
[47]
  GI50: > 100 µM (inactive)
[48]
  GI50: > 100 µM (inactive)
[49]
  GI50: > 100 µM (inactive)
[50]
  GI50: > 100 µM (inactive)
[51]
  GI50: > 100 µM (inactive)
[52]
  GI50: > 100 µM (inactive)
[53]
  GI50: > 100 µM (inactive)

## COCC(=O)CP(=O)(OC)OC
[1]
  GI50: > 100 µM (inactive)
[2]
  GI50: > 100 µM (inactive)
[3]
  GI50: > 100 µM (inactive)
[4]
  GI50: > 100 µM (inactive)
[5]
  GI50: > 100 µM (inactive)
[6]
  GI50: > 100 µM (inactive)
[7]
  GI50: > 100 µM (inactive)
[9]
  GI50: > 100 µM (inactive)
[10]
  GI50: > 100 µM (inactive)
[54]
  GI50: > 100 µM (inactive)
[12]
  GI50: > 100 µM (inactive)
[13]
  GI50: > 100 µM
[14]
  GI50: > 100 µM (inactive)
[16]
  GI50: > 100 µM (inactive)
[17]
  GI50: > 100 µM (inactive)
[18]
  GI50: > 100 µM (inactive)
[19]
  GI50: > 100 µM (inactive)
[20]
  GI50: > 100 µM (inactive)
[22]
  GI50: > 100 µM (inactive)
[23]
  GI50: > 100 µM (inactive)
[24]
  GI50: > 100 µM (inactive)
[25]
  GI50: > 100 µM (inactive)
[26]
  GI50: > 100 µM (inactive)
[27]
  GI50: > 100 µM (inactive)
[28]
  GI50: > 100 µM (inactive)
[29]
  GI50: > 100 µM (inactive)
[30]
  GI50: > 100 µM (inactive)
[31]
  GI50: > 100 µM (inactive)
[32]
  GI50: > 100 µM (inactive)
[33]
  GI50: > 100 µM (inactive)
[34]
  GI50: > 100 µM (inactive)
[35]
  GI50: > 100 µM (inactive)
[36]
  GI50: > 100 µM (inactive)
[37]
  GI50: > 100 µM (inactive)
[38]
  GI50: > 100 µM (inactive)
[39]
  GI50: > 100 µM (inactive)
[40]
  GI50: > 100 µM (inactive)
[41]
  GI50: > 100 µM (inactive)
[42]
  GI50: > 100 µM (inactive)
[43]
  GI50: > 100 µM (inactive)
[44]
  GI50: > 100 µM (inactive)
[45]
  GI50: > 100 µM (inactive)
[46]
  GI50: > 100 µM (inactive)
[47]
  GI50: > 100 µM (inactive)
[55]
  GI50: > 100 µM (inactive)
[49]
  GI50: > 100 µM (inactive)
[50]
  GI50: > 100 µM (inactive)
[51]
  GI50: > 100 µM (inactive)
[56]
  GI50: > 100 µM (inactive)
[52]
  GI50: > 100 µM (inactive)
[53]
  GI50: > 100 µM (inactive)
[57]
  GI50: > 100 µM (inactive)

## COc1cc(-c2c(C)c(C)nc(OC)c2C#N)cc(OC)c1OC
[1]
  GI50: > 100 µM (inactive)
[2]
  GI50: > 100 µM (inactive)
[3]
  GI50: > 100 µM (inactive)
[4]
  GI50: > 100 µM (inactive)
[6]
  GI50: > 100 µM (inactive)
[7]
  GI50: > 100 µM (inactive)
[8]
  GI50: > 100 µM (inactive)
[9]
  GI50: 49.8 µM (inactive)
[54]
  GI50: > 100 µM (inactive)
[11]
  GI50: > 100 µM (inactive)
[12]
  GI50: > 100 µM (inactive)
[13]
  GI50: > 100 µM
[14]
  GI50: 24.4 µM (inactive)
[15]
  GI50: 46.1 µM (inactive)
[16]
  GI50: > 100 µM (inactive)
[17]
  GI50: 21.3 µM (inactive)
[18]
  GI50: > 100 µM (inactive)
[19]
  GI50: > 100 µM (inactive)
[20]
  GI50: 58.7 µM (inactive)
[21]
  GI50: > 100 µM (inactive)
[22]
  GI50: > 100 µM (inactive)
[24]
  GI50: 41.9 µM (inactive)
[25]
  GI50: > 100 µM (inactive)
[26]
  GI50: > 100 µM (inactive)
[27]
  GI50: 39.9 µM (inactive)
[28]
  GI50: > 100 µM (inactive)
[58]
  GI50: 24.9 µM (inactive)
[29]
  GI50: > 100 µM (inactive)
[30]
  GI50: > 100 µM (inactive)
[32]
  GI50: > 100 µM (inactive)
[33]
  GI50: 61 µM (inactive)
[35]
  GI50: > 100 µM (inactive)
[36]
  GI50: 37.4 µM (inactive)
[37]
  GI50: 44.2 µM (inactive)
[38]
  GI50: > 100 µM (inactive)
[39]
  GI50: 53.6 µM (inactive)
[40]
  GI50: > 100 µM (inactive)
[41]
  GI50: > 100 µM (inactive)
[42]
  GI50: > 100 µM (inactive)
[43]
  GI50: > 100 µM (inactive)
[44]
  GI50: > 100 µM (inactive)
[45]
  GI50: > 100 µM (inactive)
[46]
  GI50: > 100 µM (inactive)
[47]
  GI50: 44.2 µM (inactive)
[55]
  GI50: 92 µM (inactive)
[49]
  GI50: > 100 µM (inactive)
[50]
  GI50: > 100 µM (inactive)
[51]
  GI50: > 100 µM (inactive)
[56]
  GI50: 82.2 µM (inactive)
[52]
  GI50: 40.6 µM (inactive)
[53]
  GI50: 31.5 µM (inactive)
